Like-named read-outs stand apart in the source and are kept apart here.
Key:
Assay type in all cases: physicochemical
[1] = Two-hour solubility of API in functional excipient solution; conditions: for Two-hour Dissolution Rate: 37° C.; for increase of two-hour dissolution rate compared to API powder control: pH 4.5 system
Experimental: In order to further increase the dissolution performance of the rifamycin-nitroimidazole coupling molecule, sodium dodecyl sulfate, meglumine, VE-TPGS or Tween 80 is respectively added in the simulated gastric fluid system of pH=1.2 or the acetate buffer system of pH=4.5, to prepare the dissolution medium containing 3 mg/mL of functional excipient. About 100 mg (or 20 mg) of rifamycin-nitroimidazole coupling molecules are weighed and put into a 1.5 ml high-performance liquid phase bottle, 1 ml of simulated gastric fluid of pH 1.2 (or acetate buffer of pH 4.5) containing functional excipient is added, and the rifamycin-nitroimidazole coupling molecules are put into a constant temperature mixing instrument at 37° C., the rotation speed is 700 rpm, and after 120 minutes, 500 μl of liquid is taken into a centrifuge tube and centrifuged at 14,000 rpm for 5 min. The supernatant liquid is centrifuged again in the same condition, and the supernatant liquid after twice centrifugation is taken into the liquid phase bottle, and diluted to a proper amount of times with acetonitrile as the solution to be tested, a high performance liquid chromatograph is injected to record a chromatogram, and the concentration is calculated by a peak area using an external standard method.

[2] = Dissolution of binary solid dispersion film in acetate buffer of pH 4.5; conditions: for Drug Concentration: acetate buffer pH 4.5, 25° C.
Experimental: (§1) Preparation of binary solid dispersion (ASD for short): About 25 mg of rifaomycin-nitroimidazole coupling molecules and about 25 mg of carrier excipient are weighed, and placed into the same 40 mL glass bottle. The open 40 mL glass bottle is covered with perforated aluminum-foil paper to prevent cross contamination and placed into a 35° C. vacuum drying oven for rapid volatilization. After 40 hours of vacuum and full drying, the binary dispersion forms a purple film on the bottom of the bottle to obtain a binary solid dispersion film.
(§2) The prepared binary solid dispersion film is subjected to dissolution experiments: In the 40 mL glass bottle containing solid dispersion films, 0.5 mL of simulated gastric fluid of pH 1.2 and […] of acetate buffer of pH 4.5 are respectively taken as dissolution media (25° C.) (the target concentration is 50 mg ml), to seal the glass bottle and complete the vortex processing for 5 seconds; 100 μL of liquid is taken as an initial sampling point (0 minute) and then the glass bottle is shaken by a rocking bed; 100 μL of solution is taken into centrifugal tubes respectively after 10 minutes, 30 minutes, and 60 minutes, to perform the centrifugation at a rotational speed of 14000 rpm for 5 minutes; and the supernatant is taken into a small liquid phase bottle and is diluted with the acetonitrile to a suitable multiple, and high-performance liquid chromatograph is taken into the glass bottle, to record a chromatogram map and calculate the concentration according to the peak area by an external standard method.

[3] = Dissolution of binary solid dispersion film in simulated gastric fluid of pH 1.2; conditions: simulated gastric fluid pH 1.2, 25° C.
Experimental: as §1, §2

[4] = Dissolution of spray-dried solid dispersion powder in acetate buffer of pH 4.5 (target 4 mg/mL); conditions: acetate buffer pH 4.5, 37° C.
Experimental: About 344 mg of prepared solid dispersions are taken and poured into a 40 mL glass bottle; 20 mL of acetate buffer of pH 4.5 (preheated to 37° C.) is used as the dissolution medium (the target concentration of the rifaomycin-nitroimidazole coupling molecule is 4 mg/mL); the glass bottle is sealed; and the above materials are whirled for 5 seconds and placed on a heated magnetic stirrer at 37° C. after a stir bar is inserted. The rotational speed is 300 rpm. After 10 min, 20 min, 40 min, 60 min, 90 min, 120 min and 180 min, 500 μL of the liquid is taken into the centrifuge tube and centrifuged at 14000 rpm for 3 min. The supernatant liquid is taken into the liquid phase bottle and diluted to 10 times with acetonitrile as the solution to be tested, the high performance liquid chromatography is injected and the chromatogram is recorded, and the concentration is calculated by the peak area using the external standard method.

[5] = Two-hour solubility of API in functional excipient solution
[6] = Approximate solubility of the coupling molecule in spray drying solvents; conditions: organic solvent or mixture, thermodynamic from solid
Experimental: In this embodiment, the solvent is firstly screened and determined: the solvent comprises one or a combination of more of methanol, ethanol, acetone, ethyl acetate, tetrahydrofuran and dichloromethane. About 10 mg of rifamycin-nitroimidazole coupling molecules are weighed into a 1.5 mL liquid phase bottle, and appropriate volumes of different solvents are added respectively to observe and judge whether the coupling molecule is completely dissolved and judge approximate solubility of the coupling molecule.

[7] = acetate buffer pH 4.5, Meglumine
[8] = acetate buffer pH 4.5, no functional excipient
[9] = simulated gastric fluid pH 1.2, SLS
[10] = simulated gastric fluid pH 1.2, Tween80
[11] = simulated gastric fluid pH 1.2, VE-TPGS
[12] = simulated gastric fluid pH 1.2, no functional excipient

Two-hour Dissolution Rate ([1]; 20 mg API + 1 mL acetate buffer pH 4.5, Meglumine 3 mg/mL): 0.10 mg/mL
Two-hour Dissolution Rate ([1]; 20 mg API + 1 mL acetate buffer pH 4.5, SLS 3 mg/mL): 0.06 mg/mL
Two-hour Dissolution Rate ([1]; 20 mg API + 1 mL acetate buffer pH 4.5, Tween80 3 mg/mL): 0.61 mg/mL
Two-hour Dissolution Rate ([1]; 20 mg API + 1 mL acetate buffer pH 4.5, VE-TPGS 3 mg/mL): 0.84 mg/mL
Two-hour Dissolution Rate ([1]; 20 mg API + 1 mL acetate buffer pH 4.5, no functional excipient): 0.15 mg/mL
Two-hour Dissolution Rate ([1]; 100 mg API + 1 mL simulated gastric fluid pH 1.2, SLS 3 mg/mL): 6.7 mg/mL
Two-hour Dissolution Rate ([1]; 100 mg API + 1 mL simulated gastric fluid pH 1.2, Tween80 3 mg/mL): 11.7 mg/mL
Two-hour Dissolution Rate ([1]; 100 mg API + 1 mL simulated gastric fluid pH 1.2, VE-TPGS 3 mg/mL): 11.5 mg/mL
Final pH [1, 7]: 4.91
Physical Appearance [1, 7]: Suspension
Final pH ([1]; acetate buffer pH 4.5, SLS): 4.65
Physical Appearance ([1]; acetate buffer pH 4.5, SLS): Suspension
Final pH ([1]; acetate buffer pH 4.5, Tween80): 4.46
Physical Appearance ([1]; acetate buffer pH 4.5, Tween80): Suspension
Final pH ([1]; acetate buffer pH 4.5, VE-TPGS): 4.45
Physical Appearance ([1]; acetate buffer pH 4.5, VE-TPGS): Suspension
Final pH [1, 8]: 4.45
Physical Appearance [1, 8]: Suspension
increase of two-hour dissolution rate compared to API powder control ([1]; Tween-80): 4 times
increase of two-hour dissolution rate compared to API powder control ([1]; VE-TPGS): 6 times
Final pH [1, 9]: 2.72
Physical Appearance [1, 9]: Suspension
Final pH [1, 10]: 2.60
Physical Appearance [1, 10]: Suspension
Final pH [1, 11]: 2.60
Physical Appearance [1, 11]: Suspension
Physical Appearance [1, 12]: Suspension
Drug Concentration ([2]; 0 min): 10 µg/mL
Drug Concentration ([2]; 10 min): 290 µg/mL
Drug Concentration ([2]; 30 min): 340 µg/mL
Drug Concentration ([2]; 60 min): 370 µg/mL
pH ([2]; dissolution medium, acetate buffer pH 4.5): 4.5
pH ([3]; dissolution medium): 2.0
Phenomenon [3]: Clear
Drug Concentration ([3]; 0 min): 10000 µg/mL
Drug Concentration ([3]; 10 min): 46400 µg/mL
Drug Concentration ([3]; 30 min): 54700 µg/mL
Drug Concentration ([3]; 60 min): 53500 µg/mL
Phenomenon [4]: Inhomogeneous
Drug Concentration ([4]; 10 Min): 210 µg/mL
Drug Concentration ([4]; 20 Min): 170 µg/mL
Drug Concentration ([4]; 40 Min): 190 µg/mL
Drug Concentration ([4]; 60 Min): 180 µg/mL
Drug Concentration ([4]; 90 Min): 180 µg/mL
Drug Concentration ([4]; 120 Min): 180 µg/mL
Drug Concentration ([4]; 180 Min): 160 µg/mL
pH ([4]; dissolution medium): 4.47
Two-hour Dissolution Rate ([5]; 100 mg API + 1 mL simulated gastric fluid pH 1.2, no functional excipient, 37° C.): 9.8 mg/mL
Final pH [5, 12]: 2.5
solubility ([6]; acetone, read-out: Approximate Solubility): > 300 mg/mL
solubility ([6]; dichloromethane, read-out: Approximate Solubility): > 300 mg/mL
solubility ([6]; ethanol, read-out: Approximate Solubility): 167 to 200 mg/mL
solubility ([6]; ethyl acetate, read-out: Approximate Solubility): 167 to 200 mg/mL
solubility ([6]; methanol, read-out: Approximate Solubility): > 300 mg/mL
solubility ([6]; various common spray drying solvents, read-out: Solubility): > 100 mg/mL
solubility ([6]; tetrahydrofuran, read-out: Approximate Solubility): > 200 mg/mL
SMILES: CO[C@H]1/C=C/O[C@@]2(C)Oc3c(C)c(O)c4c(c3C2=O)C2=NC3(CCN(CCn5c([N+](=O)[O-])cnc5C)CC3)NC2=C(NC(=O)/C(C)=C\C=C\[C@H](C)[C@H](O)[C@@H](C)[C@@H](O)[C@@H](C)[C@H](OC(C)=O)[C@@H]1C)C4=O [API]
Phenomenon ([2]; acetate buffer pH 4.5): Clear solution, incomplete dissolved film
